Results as given in patent publication US12077503B2, “Substituted cyclic amides and their use as herbicides” (FMC CORPORATION, priority 2015, dated 2024).

How the values were obtained:
Assay type in all cases: in vivo
[1] = system: pigweed (Amaranthus retroflexus); test: Test A preemergence; settings: Amaranthus retroflexus, pre-emergence, 240 h, Preemergence
[2] = system: barnyardgrass (Echinochloa crus-galli); test: Test A preemergence; settings: Echinochloa crus-galli, pre-emergence, 240 h, Preemergence
Outline: (§1)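 Visual injury scores from 0, no effect, to 100, complete control, were assigned versus untreated controls roughly 10 d after treatment in the greenhouse. Test chemicals, formulated with surfactant in a non-phytotoxic solvent, were applied to planted seeds as a preemergence soil spray or postemergence to one- to two-leaf plants 2 to 10 cm tall, in loam–sand soil.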

[3] = system: giant foxtail (Setaria faberii); test: Test A preemergence; settings: Setaria faberi, pre-emergence, 240 h, Preemergence
Outline: as §1

Kochia (Kochia scoparia) [4] = test: Test A preemergence; settings: Bassia scoparia, pre-emergence, 240 h, Preemergence
Outline: as §1

[5] = system: ragweed (common ragweed, Ambrosia elatior); test: Test A preemergence; settings: Ambrosia artemisiifolia, pre-emergence, 240 h, Preemergence
Outline: as §1

[6] = system: ryegrass, Italian (Italian ryegrass, Lolium multiflorum); test: Test A preemergence; settings: Lolium multiflorum, pre-emergence, 240 h, Preemergence
Outline: as §1

[7] = system: barnyardgrass (Echinochloa crus-galli); test: Test B flooded paddy test; settings: Echinochloa crus-galli, 360 h, Flood, 250 g ai/ha; visually evaluated after 13 to 15 d; read-out: Plant response rating, Barnyardgrass (0 to 100 scale where 0 is no effect and 100 is complete control)
Outline: (§2)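 Rating scale 0–100 (visual, vs untreated controls) after a 13–15 d greenhouse period; application to the flood layer, 3 cm above soil and maintained; plants at 2-leaf stage when treated.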

[8] = system: sedge, umbrella (small-flower umbrella sedge, Cyperus difformis); test: Test B flooded paddy test; settings: Cyperus difformis, 360 h, Flood, 250 g ai/ha; visually evaluated after 13 to 15 d; read-out: Plant response rating, Sedge, Umbrella (0 to 100 scale where 0 is no effect and 100 is complete control)
Outline: as §2

[9] = system: ducksalad (Heteranthera limosa); test: Test B flooded paddy test; settings: Heteranthera limosa, 360 h, Flood, 250 g ai/ha; visually evaluated after 13 to 15 d; read-out: Plant response rating, Ducksalad (0 to 100 scale where 0 is no effect and 100 is complete control)
Outline: as §2

rice (Oryra sativa) = test: Test B flooded paddy test; settings: Oryza sativa, 360 h, Flood, 250 g ai/ha; visually evaluated after 13 to 15 d; read-out: Plant response rating, Rice (0 to 100 scale where 0 is no effect and 100 is complete control)
Outline: as §2

[10] = system: pigweed (Amaranthus retroflexus); test: Test A postemergence; settings: Amaranthus retroflexus, post-emergence, 240 h, Postemergence, read-out: Pigweed plant response rating (0 to 100 scale)
Outline: as §1

[11] = system: barnyardgrass (Echinochloa crus-galli); test: Test A postemergence; settings: Echinochloa crus-galli, post-emergence, 240 h, Postemergence
Outline: as §1

[12] = system: giant foxtail (Setaria faberii); test: Test A postemergence; settings: Setaria faberi, post-emergence, 240 h, Postemergence, read-out: Foxtail, Giant plant response rating (0 to 100 scale)
Outline: as §1

[13] = system: Galium (catchweed bedstraw, Galium aparine); test: Test A postemergence; settings: Galium, post-emergence, 240 h, Postemergence, read-out: Galium plant response rating (0 to 100 scale)
Outline: as §1

Kochia (Kochia scoparia) [14] = test: Test A postemergence; settings: Bassia scoparia, post-emergence, 240 h, Postemergence, read-out: Kochia plant response rating (0 to 100 scale)
Outline: as §1

corn (Zea mays) = test: Test A postemergence; settings: Zea mays, post-emergence, 240 h, Postemergence, read-out: Corn plant response rating (0 to 100 scale)
Outline: as §1

[15] = system: wheat (Triticum aestivum); test: Test A postemergence; settings: Triticum aestivum, post-emergence, 240 h, Postemergence, read-out: Wheat plant response rating (0 to 100 scale)
Outline: as §1

[16] = system: blackgrass (Alopecurus myosuroides); test: Test A postemergence; settings: Alopecurus myosuroides, post-emergence, 240 h, Postemergence, read-out: Blackgrass plant response rating (0 to 100 scale)
Outline: as §1

[17] = system: ragweed (common ragweed, Ambrosia elatior); test: Test A postemergence; settings: Ambrosia artemisiifolia, post-emergence, 240 h, Postemergence, read-out: Ragweed plant response rating (0 to 100 scale)
Outline: as §1

[18] = system: ryegrass, Italian (Italian ryegrass, Lolium multiflorum); test: Test A postemergence; settings: Lolium multiflorum, post-emergence, 240 h, Postemergence, read-out: Ryegrass, Italian plant response rating (0 to 100 scale)
Outline: as §1

[19] = 125 g ai/ha, visual rating about 10 d after treatment
[20] = 31 g ai/ha, 0 is no effect, 100 is complete control

## CN1C[C@H](c2cccc(C(F)(F)F)c2)[C@@H](C(=O)Nc2ccc(F)nc2F)C1=O [Compound 1348]
[1]; 31 g ai/ha, 0 to 100 scale where 0 is no effect and 100 is complete control, read-out: Pigweed plant response rating
  pest or weed control at 31 g/ha: 0%
[1]; 125 g ai/ha, 0 to 100 scale (0 no effect, 100 complete control), read-out: Plant response rating, Pigweed
  pest or weed control at 125 g/ha: 100%
[2]; 31 g ai/ha, 0 to 100 scale where 0 is no effect and 100 is complete control, read-out: Barnyardgrass plant response rating
  pest or weed control at 31 g/ha: 90%
[2]; 125 g ai/ha, 0 to 100 scale (0 no effect, 100 complete control), read-out: Plant response rating, Barnyardgrass
  pest or weed control at 125 g/ha: 100%
[3]; 31 g ai/ha, 0 to 100 scale where 0 is no effect and 100 is complete control, read-out: Foxtail, Giant plant response rating
  pest or weed control at 31 g/ha: 100%
[3]; 125 g ai/ha, 0 to 100 scale (0 no effect, 100 complete control), read-out: Plant response rating, Foxtail, Giant
  pest or weed control at 125 g/ha: 100%
Kochia (Kochia scoparia) [4]; 31 g ai/ha, 0 to 100 scale where 0 is no effect and 100 is complete control, read-out: Kochia plant response rating
  pest or weed control at 31 g/ha: 0%
Kochia (Kochia scoparia) [4]; 125 g ai/ha, 0 to 100 scale (0 no effect, 100 complete control), read-out: Plant response rating, Kochia
  pest or weed control at 125 g/ha: 80%
[5]; 31 g ai/ha, 0 to 100 scale where 0 is no effect and 100 is complete control, read-out: Ragweed plant response rating
  pest or weed control at 31 g/ha: 80%
[5]; 125 g ai/ha, 0 to 100 scale (0 no effect, 100 complete control), read-out: Plant response rating, Ragweed
  pest or weed control at 125 g/ha: 20%
[6]; 31 g ai/ha, 0 to 100 scale where 0 is no effect and 100 is complete control, read-out: Ryegrass, Italian plant response rating
  pest or weed control at 31 g/ha: 20%
[6]; 125 g ai/ha, 0 to 100 scale (0 no effect, 100 complete control), read-out: Plant response rating, Ryegrass, Italian
  pest or weed control at 125 g/ha: 60%
[7]
  pest or weed control at 250 g/ha: 90%
[8]
  pest or weed control at 250 g/ha: 0%
[9]
  pest or weed control at 250 g/ha: 98%
Rice (Oryra sativa)
  pest or weed control at 250 g/ha: 0%
[10]; [19]
  pest or weed control at 125 g/ha: 0%
[10]; [20]
  pest or weed control at 31 g/ha: 0%
[11]; 125 g ai/ha, visual rating about 10 d after treatment, read-out: Barnyardgrass plant response rating (0 to 100 scale, 0 no effect, 100 complete control)
  pest or weed control at 125 g/ha: 90%
[11]; 31 g ai/ha, 0 is no effect, 100 is complete control, read-out: Barnyardgrass plant response rating (0 to 100 scale)
  pest or weed control at 31 g/ha: 90%
[12]; [19]
  pest or weed control at 125 g/ha: 90%
[12]; [20]
  pest or weed control at 31 g/ha: 90%
[13]; [19]
  pest or weed control at 125 g/ha: 70%
[13]; [20]
  pest or weed control at 31 g/ha: 50%
Kochia (Kochia scoparia) [14]; [19]
  pest or weed control at 125 g/ha: 50%
Kochia (Kochia scoparia) [14]; [20]
  pest or weed control at 31 g/ha: 0%
Corn (Zea mays); [19]
  plant injury at 125 g/ha: 80%
Corn (Zea mays); [20]
  plant injury at 31 g/ha: 50%
[15]; [19]
  plant injury at 125 g/ha: 60%
[15]; [20]
  plant injury at 31 g/ha: 40%
[16]; [19]
  pest or weed control at 125 g/ha: 50%
[16]; [20]
  pest or weed control at 31 g/ha: 50%
[17]; [19]
  pest or weed control at 125 g/ha: 20%
[17]; [20]
  pest or weed control at 31 g/ha: 0%
[18]; [19]
  pest or weed control at 125 g/ha: 30%
[18]; [20]
  pest or weed control at 31 g/ha: 20%
